Source: patent US20090076141A1, “Use of Propofol Prodrugs for Treating Neuropathic Pain” (XenoPort, Inc., priority 2007, published 2009)

Columns and labels:
rats = test: Acute toxicity study, single oral dose in rats; format: in vivo
Procedure: Acute toxicity studies in rats were undertaken to assess the tolerance of a single oral dose of compound (2) formulated in water. […] Complete recovery from hypoactivity, sedation, and anesthesia occurred in all rats within about 8 hours after dose. Doses above about 1552 mg-eq/kg (about 800 mg-eq/kg of propofol) were not tested.

male beagle dogs = test: Acute toxicity study, single oral dose in dogs; format: in vivo
Procedure: Acute toxicity studies were also performed by orally administering a single dose of compound (2) formulated in water to groups of male beagle dogs at doses from about 25 mg-eq/kg to about 150 mg-eq/kg.

male rats = test: Multiple dose study in rats (five days, once a day); format: in vivo; conditions: oral gavage once a day for five days, 49 to 97 mg-eq/kg
Procedure: Multiple dose studies in rats were performed by orally administering compound (2) formulated in water to groups of male rats at doses of 49 mg-eq/kg to 97 mg-eq/kg for a period of five days, by oral gavages administered once a day.

[1] = cited from earlier work
[2] = orally administered as homogeneous liquid suspension, relative to equivalent intravenous dose of propofol; cited from earlier work
[3] = oral dosing, rats; cited from earlier work
[4] = rats, single oral dose about 49 to about 388 mg-eq/kg
[5] = rats, single oral dose about 582 to about 970 mg-eq/kg
[6] = rats, single oral dose about 1164 to about 1552 mg-eq/kg

## CC(C)c1cccc(C(C)C)c1OC(=O)OC[C@H](N)C(=O)O (stereo in doubt) [Compound (2), 2-amino-3-(2,6-diisopropyl-phenoxycarbonyloxy)-propanoic acid]
rats; all rats, single oral dose
  complete recovery from hypoactivity, sedation, and anesthesia, time after dose: ≤ 8 h
rats; rats, formulated in water, about 49 to about 1552 mg-eq/kg of administered compound
  tolerance of a single oral dose: well tolerated
rats; [4]
  onset of transient hypoactivity after dose: ≤ 30 min
  transient hypoactivity maintained, time post dose: up to 4 hours
rats; [5]
  onset of sedation after dose: ≤ 1.5 h
  sedation lasted, time post dose: up to 4 hours
rats; [6]
  anesthesia lasted, time post dose: up to 2 hours
  onset of anesthesia after dose: ≤ 1 h
Male beagle dogs; formulated in water, about 25 to about 150 mg-eq/kg
  tolerance of a single oral dose: well tolerated
Male beagle dogs; single oral dose about 25 to about 150 mg-eq/kg
  sedation or anesthesia: No sedation or anesthesia was observed
Male rats
  adverse effects: No adverse effects were observed
  sedation or anesthesia: No sedation or anesthesia was observed
  tolerance of multiple doses: well tolerated

## CC(C)c1cccc(C(C)C)c1OCOP(=O)(O)O [O-phosphonooxymethyl propofol]
[1]; oral administration
  time to maximum propofol concentration: about 30 minutes
[1]; rats, relative to equivalent intravenous dose of propofol
  propofol oral bioavailability: 22.2%

## CC(C)c1cccc(C(C)C)c1O [propofol, 2,6-diisopropylphenol]
[2]
  oral bioavailability: less than 5%
[3]
  administered drug undergoing first pass metabolism: approximately 90%
